Molecules are shown by their SMILES. Marks after values point to notes of the source that are not given here.

The values below come from publication PMC8192908 (Scientific Reports, 2021).

Data set [1] concerns spermatozoa from normozoospermic samples. Briefly: Calcium ionophore-induced acrosome reaction assay. Format: cell-based, human. The conditions noted are these: PTX 1 mM, PTXm-1 0.25 mM. How it is done:
The ionophore-induced acrosome reaction was assessed using a method described earlier. The swim-up fraction collected (at 1 and 2 h after incubation) from various groups were incubated with calcium ionophore A23187 (Sigma-Aldrich, Cat. No. C7522) at 37 °C for 1 h (N = 28, normozoospermic). Sperm suspension was washed with phosphate buffered solution (PBS), centrifuged at 300 g for 10 min and fixed on a coverslip using methanol. The spermatozoa were stained with Fluorescein isothiocyanate-conjugated Pisum sativum agglutinin (FITC-PSA, Sigma-Aldrich, Cat. No. L0770), washed with Milli-Q water, counterstained with propidium iodide (PI) and then mounted on slide using mounting media. Percentage of acrosome reacted spermatozoa (without green florescence in acrosome region) were counted in 500 spermatozoa by observing under fluorescence microscope (400x).

A further data set relates to ejaculated spermatozoa. Briefly: Sperm motility in ejaculated spermatozoa (swim-up, manual assessment). The note with it: PTXm-1 0.25 mM; for progressive motility vs controls / total motility vs controls: 1 h; for progressive motility vs controls / total motility vs controls / percentage of total motile spermatozoa vs controls: PTX 1 mM; for percentage of total motile spermatozoa vs controls: 1 h and 24 h. Format: cell-based, human. The method, then: (§1) For the study, subjects with 2–7 days of sexual abstinence were asked to provide their ejaculates by masturbation. After the completion of semen analysis (WHO, 2010), the leftover semen sample from each subject was used for experiment within 1 h of collection and was equally divided into four groups. The semen samples were washed twice with EBSS media (with bicarbonate buffer) by centrifuging at 500 g for 8 min to remove the seminal plasma. […] The EBSS medium used was with bicarbonate buffer. The samples were incubated for 1 h at 37 °C and 5% CO2. The overlay containing motile fraction of capacitated spermatozoa were collected carefully without disturbing the pellet and used for further analysis. The swim-up fraction containing motile spermatozoa were assessed for motility using manual method and sperm motion characteristics using computer assisted sperm analysis (CASA) as described earlier. […] Percentage of spermatozoa with total and progressive motility was calculated. For CASA, 8 µL sperm suspension was placed on a clean microscopic slide, covered with coverslip (18 mm × 18 mm).

Data set [2] concerns spermatozoa from asthenozoospermic semen samples. Briefly: Sperm kinematics by computer assisted semen analysis (CASA). Format: cell-based, human. The conditions noted are these: 1 h after incubation; PTX 1 mM, PTXm-1 0.25 mM; mean ± SE, N = 28. How it is done: as §1
The target of the next data set is T1, PDE4A (Homo sapiens, UniProt P27815).
T1 construct: Catalytic domain of each protein was cloned between BamHI and XhoI restriction sites in; 6xHis-SUMO (N, cleaved yes); made in house; host or cells: E. coli Rosetta 2 (DE3)
T1 sequence (P27815 357-686 limits assumed): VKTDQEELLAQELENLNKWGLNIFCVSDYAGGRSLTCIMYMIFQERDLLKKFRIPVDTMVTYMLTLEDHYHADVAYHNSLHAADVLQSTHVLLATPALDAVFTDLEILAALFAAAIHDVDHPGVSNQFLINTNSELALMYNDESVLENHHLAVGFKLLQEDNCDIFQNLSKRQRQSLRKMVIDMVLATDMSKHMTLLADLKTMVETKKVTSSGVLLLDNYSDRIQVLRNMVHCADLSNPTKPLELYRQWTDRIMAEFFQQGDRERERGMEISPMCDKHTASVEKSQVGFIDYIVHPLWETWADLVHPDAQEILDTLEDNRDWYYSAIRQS
Briefly: ITC binding of PTX to the catalytic domain of PDE4A. From the text:
(§2) Supplementary Materials and Methods
(§3) Cloning, expression and purification of catalytic domains of PDE4A, […]
(§4) The full length human PDE4A (1005 bp), PDE4D (981 bp) and PDE10A (957 bp) cDNAs, cloned in pET28a(+) expression vector, were purchased from Biomatik, Canada.
(§5) Catalytic domain of each protein was cloned between BamHI and XhoI restriction sites in 6x-His-SUMO-tagged bacterial expression vector. The catalytic domain constructs of PDE4A, PDE4D and PDE10A were transformed in E. coli Rosetta 2 (DE3) competent cells for expression. After growing the transformed cells at 37 °C, till the OD 600nm reached 0.5-0.7, the culture containing constructs of PDE4A and PDE4D were induced with 0.1 mM IPTG and the cultures were incubated at 15 °C for 16-18 h, whereas those with PDE10A constructs were induced with 0.5 mM at incubated for 35 -40 h followed by cell harvesting. Harvested cells were suspended in lysis buffer (500 mM NaCl, 50 mM Tris - Cl pH 8.0, 10 mM Imidazole, 3 mM β-mercaptoethanol) and lysed by sonication (Qsonica). The lysates were cleared by centrifugation at 20,000g for 1h and supernatant was passed through Ni-NTA affinity column (His-Trap, GE Healthcare). Eluted proteins were subjected to salt exchange with a buffer containing 100 mM NaCl, 50 mM Tris-Cl pH 8.0, 3 mM β-mercaptoethanol. The collected proteins were further purified using ion - exchange chromatography (Q column, Hi-Trap, GE Healthcare) followed by overnight treatment with ULP1 at 4 °C to cleave 6xHis-SUMO tag. The tag was separated from proteins by a subsequent Ni-NTA purification. The proteins were further purified on size exclusion 16/600 200 pg column (GE Healthcare) pre-equilibrated with a buffer (100 mM […]
(§6) NaCl, 50 mM Tris pH 8.0, 5% Glycerol, 3 mM β-mercaptoethanol). After purifying with a gel filtration column, purity was determined on 12% SDS -PAGE and all three proteins […]
(§7) concentrated to 20mg/ml, flash cooled with liquid nitrogen and stored at -80°C.
(§8) Isothermal titration calorimetry (ITC) binding studies […]
(§9) of PDE4A, PDE4D and PDE10A were determined at 25°C, using Affinity ITC (TA instruments). […]

Another data set addresses T2, PDE4D (Homo sapiens, UniProt Q08499).
T2 construct: Catalytic domain of each protein was cloned between BamHI and XhoI restriction sites in; 6xHis-SUMO (N, cleaved yes); made in house; host or cells: E. coli Rosetta 2 (DE3)
Briefly: ITC binding of PTX to the catalytic domain of PDE4D.
Text: as §2, §3, §4, §5, §6, §7, §8, §9

The subject of data set [3] is spermatozoa from normozoospermic samples. Briefly: Sperm DNA integrity by TUNEL assay. The conditions noted are these: 24 h in vitro incubation; PTX 1 mM, PTXm-1 0.25 mM; control 6.5%.
Setting [4] is: asthenozoospermic samples, 24 h.

T2 sequence (Q08499 386-715 limits assumed): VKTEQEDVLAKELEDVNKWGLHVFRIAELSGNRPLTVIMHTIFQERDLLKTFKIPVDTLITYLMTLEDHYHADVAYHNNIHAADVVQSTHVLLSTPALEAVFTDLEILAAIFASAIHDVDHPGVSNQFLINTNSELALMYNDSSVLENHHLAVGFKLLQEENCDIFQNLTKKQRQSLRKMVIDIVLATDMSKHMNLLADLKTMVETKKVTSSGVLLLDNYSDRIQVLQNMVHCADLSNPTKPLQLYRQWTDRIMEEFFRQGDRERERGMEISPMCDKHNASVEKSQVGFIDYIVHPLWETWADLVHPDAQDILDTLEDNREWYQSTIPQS

`COc1ccc2cc(/C=C/C(=O)CCCCn3c(=O)c4c(ncn4C)n(C)c3=O)ccc2c1` [PTXm-1]: the acrosome reacted spermatozoa in data set [1] (1 h, control 15.21%) was found to be 15.78%. Moreover, the acrosome reacted spermatozoa in data set [1] (2 h) worked out at 25.17%. For the same compound, in the data set with ejaculated spermatozoa (asthenozoospermic samples), the “progressive motility vs controls” value is “significantly higher” and the “total motility vs controls” value is “significantly higher”. Further, in the data set on ejaculated spermatozoa (setting [4]), the “percentage of progressively motile spermatozoa vs PTX” value is listed as “considerably (P < 0.001) higher percentage” and the “percentage of total motile spermatozoa vs PTX” value is listed as “considerably (P < 0.001) higher percentage”. The “percentage of total motile spermatozoa vs controls” value in the data set with ejaculated spermatozoa (normozoospermic samples) is on record as “increased”. Moreover, the “percentage of progressively motile spermatozoa vs C, VC and PTX” value with ejaculated spermatozoa (normozoospermic samples, 24 h) was “higher percentage of progressively motile spermatozoa”. In addition, in data set [2], the ALH is 5.21 ± 0.09^b µm, the BCF is on record as 9.67 ± 0.19^b,c,d Hz, the LIN was 27.78 ± 1.02 and the VAP turned out to be 45.90 ± 0.97 µm/s. Besides, in data set [2], the VCL is reported as 109.6 ± 3.27^a µm/s, the VSL came to 27.67 ± 3.79 µm/s and the WOB is 41.87 ± 0.70^b.

As for `CC(=O)CCCCn1c(=O)c2c(ncn2C)n(C)c1=O` [PTX, pentoxifylline], on PDE4A, the “change in enthalpy (ΔH)” value is reported as ~ -8.3±0.30 kcal/mol, the “change in entropy (ΔS)” value was ~ -11.90 cal/mol.K and the “stoichiometry (N)” value was ~ 1.08±0.03. Also, on PDE4D, the “change in enthalpy (ΔH)” value was ~ -10.56±1.07 kcal/mol, the “change in entropy (ΔS)” value is recorded as ~ -16.47 cal/mol.K and the “stoichiometry (N)” value is given as ~ 0.93±0.07. Also, in data set [1] (1 h, control 15.21%), the acrosome reacted spermatozoa came to 24.25%. Also, in data set [1] (2 h), the acrosome reacted spermatozoa came to 34.28%. In addition, in data set [3], the “spermatozoa with damaged DNA (TUNEL)” value was 10.25%. In addition, in the data set with ejaculated spermatozoa (asthenozoospermic samples), the “progressive motility vs controls” value is “significantly higher” and the “total motility vs controls” value is “significantly higher”. Further, in the data set with ejaculated spermatozoa (normozoospermic samples), the “percentage of total motile spermatozoa vs controls” value is “increased”. Further, in data set [2], the ALH is on record as 5.04 ± 0.06^b µm, the BCF is on record as 8.56 ± 0.17 Hz, the LIN is 28.47 ± 1.01 and the STR was 66.94 ± 0.98^b,c. Also, in data set [2], the VAP is 47.89 ± 0.96 µm/s, the VCL is on record as 112.60 ± 3.10^b µm/s, the VSL was found to be 28.34 ± 4.67 µm/s and the WOB is recorded as 42.54 ± 0.61^b.
